The supplement of paper PMC10307832

Tests used:
Test in all cases: relative viability (nuclei count vs DMSO), 5 days (fraction); higher = more cells survive
[1] = compound: O=C(NC1CCNCC1)c1n[nH]cc1NC(=O)c1c(Cl)cccc1Cl [AT-7519] + C[C@]1(O)C[C@@H](c2nc(-c3ccc4ccc(-c5ccccc5)nc4c3)c3c(N)nccn32)C1 [Linsitinib] (partner 1 µM)
How it was run: (§1)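 Cells from lung cancer lines were seeded into 1536-well plates and, one day later, dosed by pin tool. Treatments were either a single drug or a fixed dose of an anchor drug with five library-drug doses (not always all listed) in √10 steps. After 5 days, nuclei were stained in a one-step fixation (final 0.05% Triton X-100, 1% formaldehyde, 1 ug/ml Hoechst) and counted on 4× images, and relative viability is the treated-to-vehicle nuclei ratio, as the median of duplicate plates.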

[2] = compound: O=C(NC1CCNCC1)c1n[nH]cc1NC(=O)c1c(Cl)cccc1Cl [AT-7519] + CC(=O)c1c(C)c2cnc(Nc3ccc(N4CCNCC4)cn3)nc2n(C2CCCC2)c1=O [Palbociclib] (partner 0.5 µM)
How it was run: as §1

[3] = compound: O=C(NC1CCNCC1)c1n[nH]cc1NC(=O)c1c(Cl)cccc1Cl [AT-7519] + CC1(C)CCC(c2ccc(Cl)cc2)=C(CN2CCN(c3ccc(C(=O)NS(=O)(=O)c4ccc(N[C@H](CCN5CCOCC5)CSc5ccccc5)c(S(=O)(=O)C(F)(F)F)c4)cc3)CC2)C1 [Navitoclax] (partner 0.5 µM)
How it was run: as §1

[4] = compound: C1=CC2=C(C=C(C(=C2N=C1)O)N=NC3=CC4=C(C=C3)C=C(C=C4)S(=O)(=O)O)S(=O)(=O)O + Cc1nc(NC(=O)N2CCC[C@H]2C(N)=O)sc1-c1ccnc(C(C)(C)C(F)(F)F)c1 [Alpelisib] (partner 2 µM)
How it was run: as §1

Q: Which relative viability ([1]; first compound 0.01 µM) does the source give for UMC-11 here?
A: 1.17

Q: And the relative viability ([1]; first compound 0.03162 µM)?
A: 0.89

Q: What about the relative viability ([1]; first compound 0.3162 µM) of the same cell line?
A: 0.767

Q: And the relative viability ([1]; first compound 1 µM)?
A: 0.344

Q: And the relative viability ([2]; first compound 0.01 µM)?
A: 0.319

Q: And the relative viability ([2]; first compound 0.03162 µM)?
A: 0.328

Q: What about the relative viability ([2]; first compound 0.3162 µM) of the same cell line?
A: 0.283

Q: And the relative viability ([2]; first compound 1 µM)?
A: 0.25

Q: What about the relative viability ([3]; first compound 0.01 µM) of the same cell line?
A: 0.291

Q: And the relative viability ([3]; first compound 0.03162 µM)?
A: 0.306

Q: What about the relative viability ([3]; first compound 0.3162 µM) of the same cell line?
A: 0.222

Q: What about the relative viability ([3]; first compound 1 µM) of the same cell line?
A: 0.134

Q: What about the relative viability ([4]; first compound 0.08 µM) of the same cell line?
A: 1.12

Q: And the relative viability ([4]; first compound 0.253 µM)?
A: 0.954

Q: What about the relative viability ([4]; first compound 0.8 µM) of the same cell line?
A: 0.918

Q: And the relative viability ([4]; first compound 2.53 µM)?
A: 0.88

Q: And the relative viability ([4]; first compound 8 µM)?
A: 0.824
